Test results from US6348488B1, “Remedies for motor dysfunction and GAPDH expression inhibitors” (Ono Pharmaceutical Co., Ltd., priority 1998, dated 2002).

Experiments:
[1] = test system: cerebellar granule cells (CGC); experiment: cells; assay type: cell-based; conditions: for Age-induced apoptosis of CGC: added at 7 DIV, agent 0.03 μM, THA 10 μM
Protocol: A) Preparation of primary culture cerebellar granule cells (CGC)
According to the method by Ishitani et al., CGC was prepared as follows (Ishitani et al., J. Neurochem., 66:928-35, 1996).
Cerebellum was excised from an 8-day old Sprague-Dawley rat and cut to 0.4 mm square cubes using Mcllawin tissue chopper. Further, the cubes were digested at 37° C. for 15 minutes in a 0.025% trypsin-containing Krebs phosphate buffer (KPB).
After the reaction was stopped with KPB containing 0.008% soybean trypsin inhibitor and 0.0016% deoxyribonuclease I, the digested cubes were triturated in KPB containing 0.01% deoxyribonuclease I and 0.05% soybean trypsin inhibitor using a convergent Pasteur pipette to obtain dispersed CGC.
The cells were suspended in a basal modified Eagle's medium (BME) containing 10% fetal calf serum (FCS), 2 mM glutamine, 50 μg/ml gentamycin and 25 mM potassium chloride (KCl), and seeded on a plastic dish (35 mm) coated with poly-L-lysine (molecular weight: 3-7×10^4, 100 μg/ml) to a cell density of 2.1×10^5 live cells/cm^2.
Under 5% carbon dioxide (CO2), culture was started at 37° C. and after 18 to 24 hours cytosine arabinofuranoside (10 μM) for preventing the growth of non-neuronal cells was added and culture was continued. At 7 DIV (days in vitro), various chemicals were added and thereafter, culture was continued in the same medium.
B) Measurement of viability by live double staining method with FDA-PI
CGC after desired culture days was washed twice with 2 ml of Locke's solution (154 mM NaCl, 5.6 mM KCl, 2.3 mM CaCl2, 1.2 mM MgSO4, 5 mM HEPES, 5.6 mM glucose, 3.6 mM NaHCO3, pH 7.4) and then stained with 0.0008% fluorescein diacetate (FDA) and 0.0002% propidium iodide (PI) for 3 to 5 minutes.
Fluorescent observation was performed using epi-illuminated fluorescent microscope (Olympus, IMT2-RFL) equipped with a dichroic mirror for B excitement (IMT2-DMB), an auxiliary excitation filter (EY455) and an auxiliary filter (O530).
FDA was decomposed by an esterase in the living cells to emit fluorescence (fluorescein) from green to yellow fluorescence, on the other hand PI permeates through dead cell membranes and binds with DNA to emit from red to brown fluorescence, so that the both fluorescences can be observed simultaneously using the above-described fluorescence microscopy.
Viability was calculated according to the following formula.
Viability=[FDA stained cell number/(FDA stained cell number+PI stained cell number)]×100

spinal cord impact model = experiment: Motor dysfunction inhibitory action in spinal cord impact model (treadmill maximum walking distance); assay type: in vivo, rat
Protocol: A male Wistar rat (about 250 g) was placed in a supine position under anesthesia with sodium pentobarbital (40 mg/kg, i.p.). After partial laminectomy to remove the fifth lumber spine, a silicon rubber (height: 1 mm, length: 4 mm, and width: 1.25 mm) was inserted in the fourth and sixth lumber spines.
After the operation, the maximum walking distance was measured using a treadmill on Day 1, 2, 3, 5, 7 and 14.
That is, the treadmill was run at a speed starting from 10 m/min, with an increment at a rate of 5 m/min every 3 minutes thereafter until the time when the animal dropped from the walking belt and could not walk any further. The walking distance was calculated from the time when the animal could not walk any further.

[2] = test system: spinal cord injury crush lesion model; experiment: Motor dysfunction in spinal cord injury (crush lesion model, modified Tarlov scale); assay type: in vivo, rat; conditions: 10 mg/kg, versus vehicle control group
Protocol: A male Wistar rat (about 250 to 300 g) was subject to dorsal median incision and laminectomy to remove thoracic spine (T11) under anesthesia with sodium pentobarbital and then the dura mater was exposed. A metal pole (diameter: 3 mm, length: 40 mm, weight: 3.8 g) was placed on the dura mater and a load of 10 g was dropped from a height of 10 cm through a cylinder to prepare a crush lesion model. Thereafter, the muscle layer and skin were sutured. The behavioral deficit was evaluated using modifications of Tarlov scale. That is, the evaluation was made based on mean scores of both hind legs according to the following scores. Neurologic scores: 0 Complete paralysis of hind legs 1 Slight movements of hind legs were observed. 2 Movements of hind legs were clear but the body weight could not be supported so that autonomic movement was impossible. 3 The animal crept and could not support the body weight. 4 The animal could support the body weight when standing or walking. However, clearly disabled. 5 Posture and walking ability are close to those of normal animals.

GAPDH mRNA = GAPDH mRNA expression in CGC, Northern blotting analysis; assay type: cell-based, rat; conditions: addition at 7 DIV; measured at 15 DIV (CGC)
Protocol: Preparation of the primary culture cerebellar granule cells (CGC) was performed in accordance with Test Example 3 A).
Then, according to the method of Fukamauchi et al., total RNA was extracted from CGC of the desired culture day number. The total RNA (9 μg/lane) was electrophoresed on 1.2% agarose formaldehyde gel and transferred to a nylon membrane (Hybond-N, Amersham). Thereafter, it was subjected to prehybridization at 42° C. for 3 to 5 hours in a solution containing 5×Denhardt's solution (0.1% Ficol 400, 0.1% polyvinyl pyrrolidone, 0.1% BSA), 50% formamide, 50 μg/ml salmon testis DNA, and 0.5% SDS (Fukamauchi et al., J. Neurochem., 56:716-9, 1991, Sunaga et al., Neurosci. Lett., 163:27-30, 1993).
Using a Multi prime DNA labelling kit (Amersham), human GAPDH cDNA probe (Clontech, Palo Alto, Calif., U.S.A.) labeled with [α-^32P] deoxycytidine 5′-triphosphate (3,000 Ci/mm pl) was thermally denatured and thereafter added to the prehybridization solution, followed by hybridization at 42° C. for 24 hours.
The membrane was fully washed at 60° C. for 10 minutes in 0.1% SDS containing 0.1×SSC ([…], pH 7.0), exposed on a high-sensitivity X-ray film (IPSO 3000, Fuji) to prepare an autoradiogram. Quantitative analysis was performed using a CCD type image analyzer (BIOPROFIL, M&S).

GAPDH protein = GAPDH protein expression in CGC, SDS-PAGE and Western blotting analyses; assay type: cell-based, rat; conditions: process of age-induced cell death
Protocol: The cultured cells of the desired culture day number were washed three times with 2 ml of PBS and then stripped off by a rubber policeman and the cells were recovered by centrifugation at 188×G at 4° C. for 5 minutes. The cells were resuspended in ice-cooled 50 mM Tris-HCl buffer (pH 7.4) and the cell membranes were destroyed by sonication.
The homogenate was centrifuged at 2×10^5×G at 4° C. for 30 minutes to obtain a precipitate (insoluble fraction (pellet)), which was resuspended in the same buffer and then was subjected to quantitative determination of protein together with the supernatant (soluble “supernatant”). […]
The gel after the electrophoresis was stained with 0.1% Coomassie blue. The quantitative analysis of the amount of 38-kDa protein band was performed using a CCD type image analyzer (BIOPROFIL, N&S). […]
The PDVF membrane after the transcription was treated in 0.5% skim milk containing TBS-T (20 mM Tris, 137 mM NaCl, 0.05% Tween 20, pH 7.4) for 60 minutes to effect blocking, and then was allowed to react at room temperature for 60 minutes in TBS-T containing primary antibody (anti-rabbit GAPDH monoclonal antibody diluted to 1:15000). […] After washing the PVDF membrane, quantitative determination of GAPDH protein was performed on a high-sensitivity X-ray film using a detector for chemiluminescence (Renaissance TM, NEN).

[3] = Acute toxicity, rat, intravenous administration; assay type: in vivo
[4] = test system: 30 types or more of surface receptors inclusive of overactivated NMDA receptors; experiment: Influence on surface receptors in age-induced apoptosis of CGC

Structure (SMILES)	Inhibition of the cell death ([1]; 1 μM)	Inhibition of the cell death ([1]; 10 μM)	Age-induced apoptosis of CGC [1]	Maximum Walking Distance (spinal cord impact model; 1 mg/Kg, Day 2 after administration)	Maximum Walking Distance (spinal cord impact model; 1 mg/Kg, Day 4 after administration)	Maximum Walking Distance (spinal cord impact model; 1 mg/Kg, Day 11 after administration)	Maximum Walking Distance (spinal cord impact model; 10 mg/Kg orally, Day 2 after administration)	Maximum Walking Distance (spinal cord impact model; 10 mg/Kg orally, Day 4 after administration)	Maximum Walking Distance (spinal cord impact model; 10 mg/Kg orally, Day 11 after administration (day 14 after operation))	Maximum Walking Distance (spinal cord impact model; 10 mg/Kg orally, Day 11 after administration (day 14 after operation), listed as N-[3-[N-(4-chlorophenylmethyl)carbamoyl]propanoyl]-L-prolinal)	Influence on the autonomic movement and sensitivity to pain (spinal cord impact model; rat, spinal cord impact model)	Degree of recovery of motor dysfunction (neurologic score) ([2]; day 9 up to day 21 of the operation)	Change in body weight after the operation [2]	viability at 0.03 µM ([1]; Rattus norvegicus, 0.03 μM added at 7 DIV, at 17 DIV)	Concentration exhibiting a protective action to neurons ([1]; at 17 DIV)	Increase in GAPDH mRNA (GAPDH mRNA)	Increase in the 38-kDa protein (GAPDH) in cell membrane fraction (GAPDH protein)	Acute toxicity (LD50) [3]	Influence on surface receptors [4]
Nc1c2c(nc3ccccc13)CCCC2 [THA, 9-amino-1,2,3,4-tetrahydroacridine, reference compound]	about 30%	almost completely	inhibited	–	–	–	–	–	–	–	–	–	–	–	–	–	–	–	–
O=C[C@@H]1CCCN1C(=O)CCC(=O)NCc1ccc(Cl)cc1 [Agent of invention, N-[3-[N-(4-chlorophenylmethyl)carbamoyl]propanoyl]-L-prolinal]	–	–	inhibited	237 ± 49 m	414 ± 58 m	347 ± 77 m	329 ± 15 m	455 ± 34 m	408 ± 30 m	408±30 m	no influence	tended to be superior as compared with the vehicle control group	tended to be superior to the vehicle control group	92 ± 4.4%	several	completely inhibited	inhibited the increase	200 mg/kg body weight	no influence
